Measurements: article PMC4965148 (PLoS ONE, 2016)
Read-outs that look alike come from different tables or passages of the source.

How the values were obtained:
[1] = Plasma and brain concentrations after dosing; assay type: in vivo, mouse; details: for Brain Mean ± SD / concentration at 30 min / Kp at 30 min: 30 min; for concentration at 60 min: sc, Mouse MK-801 Y Maze
Procedure: Occupancy determinations were made either on completion of behavioral testing or in satellite groups of animals dosed in parallel with behavioral testing. At specified time points after dosing, the forebrain (for occupancy), the remaining hindbrain (for brain drug exposure) and plasma were collected, frozen in chilled isopentane and stored at -80°C until assayed. […] Homogenized tissue aliquots were frozen immediately and stored at -80°C. […] Non-specific binding was defined by adding 25 μM MLA to wells containing tissues from vehicle-treated animals. […] The filters were washed with ice-cold assay buffer, punched into a clear plate and 200 μl scintillation fluid added per well. Bound radioactivity was measured using a Wallac Microbeta liquid scintillation counter. Specific binding was calculated by subtracting the value of the non-specific binding from that of the total binding in each sample. The percent occupancy was calculated as [1 –(specific binding in drug treated mice/specific binding in vehicle treated mice)] x 100.
In brief, 50 μL of the plasma sample was extracted by protein precipitation with 150 μL acetonitrile containing an internal standard and 5 μL of supernatant injected into the LC-MS/MS system. Analytes were separated by reversed phase chromatography and detection of each analyte was achieved through selected reaction monitoring mode of mass spectrometry.

Adrenergic α1D = Adrenergic α1D (Homo sapiens, UniProt P25100); assay: Selectivity panel, binding
MAO-B = MAO-B (Homo sapiens, UniProt P27338); assay: Selectivity panel, enzyme; assay type: biochemical
Chain of MAO-B (P27338 whole entry): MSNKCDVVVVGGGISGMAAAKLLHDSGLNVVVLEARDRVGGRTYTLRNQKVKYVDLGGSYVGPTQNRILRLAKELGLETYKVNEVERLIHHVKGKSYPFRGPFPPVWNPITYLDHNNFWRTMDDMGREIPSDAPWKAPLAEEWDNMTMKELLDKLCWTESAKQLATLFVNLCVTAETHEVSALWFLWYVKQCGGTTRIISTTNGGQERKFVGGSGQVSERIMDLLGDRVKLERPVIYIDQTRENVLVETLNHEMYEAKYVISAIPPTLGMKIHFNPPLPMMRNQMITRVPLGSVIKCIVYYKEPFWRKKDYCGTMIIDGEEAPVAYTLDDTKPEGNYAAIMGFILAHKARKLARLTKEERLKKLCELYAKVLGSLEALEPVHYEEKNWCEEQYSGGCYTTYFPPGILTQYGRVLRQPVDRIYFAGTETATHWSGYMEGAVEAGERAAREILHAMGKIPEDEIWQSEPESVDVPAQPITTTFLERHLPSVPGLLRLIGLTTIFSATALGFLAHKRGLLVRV

Chain of Adrenergic α1D (P25100 whole entry): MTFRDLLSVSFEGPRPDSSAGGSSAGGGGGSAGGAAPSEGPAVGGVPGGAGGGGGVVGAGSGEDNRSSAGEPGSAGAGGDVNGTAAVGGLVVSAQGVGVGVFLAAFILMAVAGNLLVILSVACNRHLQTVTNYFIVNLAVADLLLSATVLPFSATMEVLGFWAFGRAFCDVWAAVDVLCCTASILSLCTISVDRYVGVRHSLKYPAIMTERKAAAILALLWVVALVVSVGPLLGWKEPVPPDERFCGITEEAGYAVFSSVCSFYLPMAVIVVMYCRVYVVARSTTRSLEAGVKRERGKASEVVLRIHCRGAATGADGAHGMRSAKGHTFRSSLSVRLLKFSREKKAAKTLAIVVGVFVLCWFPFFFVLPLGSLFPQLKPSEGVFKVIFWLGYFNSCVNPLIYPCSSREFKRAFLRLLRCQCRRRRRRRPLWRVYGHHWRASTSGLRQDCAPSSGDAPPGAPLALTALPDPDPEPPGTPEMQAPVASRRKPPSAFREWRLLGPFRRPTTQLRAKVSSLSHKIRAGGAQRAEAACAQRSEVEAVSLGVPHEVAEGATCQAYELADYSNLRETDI

Which results are given for c1cn(-c2cc(NC3=NC[C@@]4(CN5CCC4CC5)O3)ncn2)cn1 [BMS-933043, (2R)-N-(6-(1H-imidazol-1-yl)-4-pyrimidinyl)-4'H-spiro[4-azabicyclo[2.2.2]octane-2,5'-[1,3]oxazol]-2'-amine]?
Brain Mean ± SD ([1]; Mouse NOR (0.03-1 mg/kg study), 0.03 mg/kg sc): < LLQ; Brain Mean ± SD ([1]; Mouse NOR (0.03-1 mg/kg study), 0.10 mg/kg sc): < LLQ; concentration at 30 min ([1]; mouse, brain, subcutaneous, 0.3 mg/kg, Mouse NOR (0.03-1 mg/kg study), 0.30 mg/kg sc, read-out: Brain Mean ± SD): 24 ± 3.9 nM; concentration at 30 min ([1]; mouse, brain, subcutaneous, 1 mg/kg, Mouse NOR (0.03-1 mg/kg study), 1 mg/kg sc, read-out: Brain Mean ± SD): 78 ± 5.2 nM; concentration at 30 min ([1]; mouse, brain, subcutaneous, 1 mg/kg, Mouse NOR (1-10 mg/kg study), 1 mg/kg sc, read-out: Brain Mean ± SD): 97 ± 16 nM; concentration at 30 min ([1]; mouse, brain, subcutaneous, 3 mg/kg, Mouse NOR (1-10 mg/kg study), 3 mg/kg sc, read-out: Brain Mean ± SD): 297 ± 48 nM; concentration at 30 min ([1]; mouse, brain, subcutaneous, 10 mg/kg, Mouse NOR (1-10 mg/kg study), 10 mg/kg sc, read-out: Brain Mean ± SD): 1110 nM; Kp at 30 min ([1]; mouse, brain/plasma, subcutaneous, 0.3 mg/kg, Mouse NOR (0.03-1 mg/kg study), 0.30 mg/kg sc): 0.12; Kp at 30 min ([1]; mouse, brain/plasma, subcutaneous, 1 mg/kg, Mouse NOR (0.03-1 mg/kg study), 1 mg/kg sc): 0.11; Kp at 30 min ([1]; mouse, brain/plasma, subcutaneous, 1 mg/kg, Mouse NOR (1-10 mg/kg study), 1 mg/kg sc): 0.21; Kp at 30 min ([1]; mouse, brain/plasma, subcutaneous, 3 mg/kg, Mouse NOR (1-10 mg/kg study), 3 mg/kg sc): 0.19; Kp at 30 min ([1]; mouse, brain/plasma, subcutaneous, 10 mg/kg, Mouse NOR (1-10 mg/kg study), 10 mg/kg sc): 0.2; Kp ([1]; mouse, brain/plasma, subcutaneous, mice, read-out: average brain/plasma): 0.17; concentration at 60 min ([1]; mouse, plasma, 0.03 mg/kg, 0.03 mg/kg sc, read-out: Plasma Mean ± SD): 5 ± 0.4 nM; concentration at 60 min ([1]; mouse, plasma, 0.1 mg/kg, 0.10 mg/kg sc, read-out: Plasma Mean ± SD): 21 ± 2.4 nM; concentration at 60 min ([1]; mouse, plasma, 0.3 mg/kg, 0.30 mg/kg sc, read-out: Plasma Mean ± SD): 94 ± 19 nM; concentration at 60 min ([1]; mouse, plasma, 1 mg/kg, 1 mg/kg sc, read-out: Plasma Mean ± SD): 254 ± 32 nM; concentration at 60 min ([1]; mouse, plasma, 3 mg/kg, 3 mg/kg sc, read-out: Plasma Mean ± SD): 774 ± 282 nM; concentration at 60 min ([1]; mouse, plasma, 10 mg/kg, 10 mg/kg sc, read-out: Plasma Mean ± SD): 2980 nM; concentration at 30 min ([1]; mouse, plasma, subcutaneous, 0.03 mg/kg, Mouse NOR (0.03-1 mg/kg study), 0.03 mg/kg sc, read-out: Plasma Mean ± SD): 14 ± 2.7 nM; concentration at 30 min ([1]; mouse, plasma, subcutaneous, 0.1 mg/kg, Mouse NOR (0.03-1 mg/kg study), 0.10 mg/kg sc, read-out: Plasma Mean ± SD): 52 ± 3.6 nM; concentration at 30 min ([1]; mouse, plasma, subcutaneous, 0.3 mg/kg, Mouse NOR (0.03-1 mg/kg study), 0.30 mg/kg sc, read-out: Plasma Mean ± SD): 213 ± 49 nM; concentration at 30 min ([1]; mouse, plasma, subcutaneous, 1 mg/kg, Mouse NOR (0.03-1 mg/kg study), 1 mg/kg sc, read-out: Plasma Mean ± SD): 719 ± 69 nM; concentration at 30 min ([1]; mouse, plasma, subcutaneous, 1 mg/kg, Mouse NOR (1-10 mg/kg study), 1 mg/kg sc, read-out: Plasma Mean ± SD): 459 ± 59 nM; concentration at 30 min ([1]; mouse, plasma, subcutaneous, 3 mg/kg, Mouse NOR (1-10 mg/kg study), 3 mg/kg sc, read-out: Plasma Mean ± SD): 1570 nM; concentration at 30 min ([1]; mouse, plasma, subcutaneous, 10 mg/kg, Mouse NOR (1-10 mg/kg study), 10 mg/kg sc, read-out: Plasma Mean ± SD): 5560 nM; IC50 (Adrenergic α1D): > 30 µM; IC50 (MAO-B): > 30 µM
